Patent US20250120989A1, “BRIDGED TRICYCLIC CARBAMOYLPYRIDONE COMPOUNDS AND USES THEREOF” (priority 2023, published 2025)
In brackets after ≈: the same amount, converted by molar mass.

Assays:
HIV-1 (IIIB) = experiment: microbe, parasite or virus in culture; format: cell-based; details: Human immunodeficiency virus 1, MT4, 120 h; HIV-1 (IIIB) replication in MT-4 cells, 5 days, Cell Titer Glo; read-out: MT4 EC50
physchem = details: FaSSIF, 23 °C, thermodynamic from solid
in vitro = details: human, uninfected MT-4 cells

## CC1=NO[C@@]2(CC[C@H](C)N3C[C@H]2n2cc(C(=O)NCc4ccc(F)cc4F)c(=O)c(OCOC(=O)C(C)(C)CCN(CC(=O)O)C(=O)OCOP(=O)(O)O)c2C3=O)C1 [Compound 43, N-(4-((((3′S,5S,7′R)-10′-((2,4-difluorobenzyl)carbamoyl)-3,3′-dimethyl-1′,11′-dioxo-1′,4′,5′,11′-tetrahydro-3′H,4H,7′H-spiro[isoxazole-5,6′-[2,7]methanopyrido[1,2-a][1,4]diazonin]-12′-yl)oxy)methoxy)-3,3-dimethyl-4-oxobutyl)-N-(((phosphonooxy)methoxy)carbonyl)glycine]
HIV-1 (IIIB)
  EC50: 0.00177 µM
physchem
  solubility thermodynamic at 24 h: 5420 µg/mL (≈ 6.43 mM)
In vitro
  CC50 at 5 days: 8.46 µM

## COC1=NO[C@@]2(CC[C@H](C)N3C[C@H]2n2cc(C(=O)NCc4ccc(F)cc4F)c(=O)c(OCOC(=O)O[C@H](C)COP(=O)(O)O)c2C3=O)C1 [Compound 54, (((3′S,5S,7′R)-10′-((2,4-difluorobenzyl)carbamoyl)-3-methoxy-3′-methyl-1′,11′-dioxo-1′,4′,5′,11′-tetrahydro-3′H,4H,7′H-spiro[isoxazole-5,6′-[2,7]methanopyrido[1,2-a][1,4]diazonin]-12′-yl)oxy)methyl ((R)-1-(phosphonooxy)propan-2-yl) carbonate]
HIV-1 (IIIB)
  EC50: 0.00432 µM
physchem
  solubility thermodynamic at 24 h: 4660 µg/mL (≈ 6.51 mM)
In vitro
  CC50 at 5 days: 15.5 µM

## CC1=NO[C@@]2(CC[C@H](C)N3C[C@H]2n2cc(C(=O)NCc4ccc(F)cc4F)c(=O)c(OCOC(=O)O[C@@H](C)[C@@H](C)OP(=O)(O)O)c2C3=O)C1 [Compound 57, (((3′S,5S,7′R)-10′-((2,4-difluorobenzyl)carbamoyl)-3,3′-dimethyl-1′,11′-dioxo-1′,4′,5′,11′-tetrahydro-3′H,4H,7′H-spiro[isoxazole-5,6′-[2,7]methanopyrido[1,2-a][1,4]diazonin]-12′-yl)oxy)methyl ((2S,3R)-3-(phosphonooxy)butan-2-yl) carbonate]
HIV-1 (IIIB)
  EC50: 0.00232 µM
physchem
  solubility thermodynamic at 24 h: 4630 µg/mL (≈ 6.5 mM)
In vitro
  CC50 at 5 days: 19.9 µM

## CC1=NO[C@@]2(CC[C@H](C)N3C[C@H]2n2cc(C(=O)NCc4ccc(F)cc4F)c(=O)c(OCOC(=O)O[C@H](C)[C@H](C)OP(=O)(O)O)c2C3=O)C1 [Compound 58, (((3′S,5S,7′R)-10′-((2,4-difluorobenzyl)carbamoyl)-3,3′-dimethyl-1′,11′-dioxo-1′,4′,5′,11′-tetrahydro-3′H,4H,7′H-spiro[isoxazole-5,6′-[2,7]methanopyrido[1,2-a][1,4]diazonin]-12′-yl)oxy)methyl ((2R,3S)-3-(phosphonooxy)butan-2-yl) carbonate]
HIV-1 (IIIB)
  EC50: 0.00211 µM
physchem
  solubility thermodynamic at 24 h: 4860 µg/mL (≈ 6.82 mM)
In vitro
  CC50 at 5 days: 24.2 µM

## COC1=NO[C@@]2(CC[C@H](C)N3C[C@H]2n2cc(C(=O)NCc4ccc(F)cc4F)c(=O)c(OCOC(=O)O[C@@H](C)[C@@H](C)OP(=O)(O)O)c2C3=O)C1 [Compound 59, (((3′S,5S,7′R)-10′-((2,4-difluorobenzyl)carbamoyl)-3-methoxy-3′-methyl-1′,11′-dioxo-1′,4′,5′,11′-tetrahydro-3′H,4H,7′H-spiro[isoxazole-5,6′-[2,7]methanopyrido[1,2-a][1,4]diazonin]-12′-yl)oxy)methyl ((2S,3R)-3-(phosphonooxy)butan-2-yl) carbonate]
HIV-1 (IIIB)
  EC50: 0.00204 µM
physchem
  solubility thermodynamic at 24 h: 5240 µg/mL (≈ 7.19 mM)
In vitro
  CC50 at 5 days: 18.8 µM

## COC1=NO[C@@]2(CC[C@H](C)N3C[C@H]2n2cc(C(=O)NCc4ccc(F)cc4F)c(=O)c(OCOC(=O)O[C@H](C)[C@H](C)OP(=O)(O)O)c2C3=O)C1 [Compound 60, (((3′S,5S,7′R)-10′-((2,4-difluorobenzyl)carbamoyl)-3-methoxy-3′-methyl-1′,11′-dioxo-1′,4′,5′,11′-tetrahydro-3′H,4H,7′H-spiro[isoxazole-5,6′-[2,7]methanopyrido[1,2-a][1,4]diazonin]-12′-yl)oxy)methyl ((2R,3S)-3-(phosphonooxy)butan-2-yl) carbonate]
HIV-1 (IIIB)
  EC50: 0.0019 µM
physchem
  solubility thermodynamic at 24 h: 4520 µg/mL (≈ 6.2 mM)
In vitro
  CC50 at 5 days: 23.8 µM

## COC1=NO[C@@]2(CC[C@H](C)N3C[C@H]2n2cc(C(=O)NCc4ccc(F)cc4F)c(=O)c(OCOC(=O)O[C@H](C)[C@@H](C)OP(=O)(O)O)c2C3=O)C1 [Compound 61, (((3′S,5S,7′R)-10′-((2,4-difluorobenzyl)carbamoyl)-3-methoxy-3′-methyl-1′,11′-dioxo-1′,4′,5′,11′-tetrahydro-3′H,4H,7′H-spiro[isoxazole-5,6′-[2,7]methanopyrido[1,2-a][1,4]diazonin]-12′-yl)oxy)methyl ((2R,3R)-3-(phosphonooxy)butan-2-yl) carbonate]
HIV-1 (IIIB)
  EC50: 0.00235 µM
physchem
  solubility thermodynamic at 24 h: 4800 µg/mL (≈ 6.58 mM)
In vitro
  CC50 at 5 days: 20.9 µM

## CC1=NO[C@@]2(CC[C@H](C)N3C[C@H]2n2cc(C(=O)NCc4ccc(F)cc4F)c(=O)c(OCOC(=O)OC(C)(C)COP(=O)(O)O)c2C3=O)C1 [Compound 62, (((3′S,5S,7′R)-10′-((2,4-difluorobenzyl)carbamoyl)-3,3′-dimethyl-1′,11′-dioxo-1′,4′,5′,11′-tetrahydro-3′H,4H,7′H-spiro[isoxazole-5,6′-[2,7]methanopyrido[1,2-a][1,4]diazonin]-12′-yl)oxy)methyl (2-methyl-1-(phosphonooxy)propan-2-yl) carbonate]
HIV-1 (IIIB)
  EC50: 0.00258 µM
physchem
  solubility thermodynamic at 24 h: 5040 µg/mL (≈ 7.08 mM)
In vitro
  CC50 at 5 days: 28.1 µM

## COC1=NO[C@@]2(CC[C@H](C)N3C[C@H]2n2cc(C(=O)NCc4ccc(F)cc4F)c(=O)c(OCOC(=O)OC(C)(C)COP(=O)(O)O)c2C3=O)C1 [Compound 63, (((3′S,5S,7′R)-10′-((2,4-difluorobenzyl)carbamoyl)-3-methoxy-3′-methyl-1′,11′-dioxo-1′,4′,5′,11′-tetrahydro-3′H,4H,7′H-spiro[isoxazole-5,6′-[2,7]methanopyrido[1,2-a][1,4]diazonin]-12′-yl)oxy)methyl (2-methyl-1-(phosphonooxy)propan-2-yl) carbonate]
HIV-1 (IIIB)
  EC50: 0.00512 µM
physchem
  solubility thermodynamic at 24 h: 4620 µg/mL (≈ 6.35 mM)
In vitro
  CC50 at 5 days: 35.4 µM

## CC[C@H](COC(=O)OCOc1c2n(cc(C(=O)NCc3ccc(F)cc3F)c1=O)[C@@H]1CN(C2=O)[C@@H](C)CC[C@]12CC(C)=NO2)OP(=O)(O)O [Compound 64, (((3′S,5S,7′R)-10′-((2,4-difluorobenzyl)carbamoyl)-3,3′-dimethyl-1′,11′-dioxo-1′,4′,5′,11′-tetrahydro-3′H,4H,7′H-spiro[isoxazole-5,6′-[2,7]methanopyrido[1,2-a][1,4]diazonin]-12′-yl)oxy)methyl ((R)-2-(phosphonooxy)butyl) carbonate]
HIV-1 (IIIB)
  EC50: 0.00124 µM
physchem
  solubility thermodynamic at 24 h: 4840 µg/mL (≈ 6.8 mM)
In vitro
  CC50 at 5 days: 13.6 µM

## CC[C@H](COC(=O)OCOc1c2n(cc(C(=O)NCc3ccc(F)cc3F)c1=O)[C@@H]1CN(C2=O)[C@@H](C)CC[C@]12CC(OC)=NO2)OP(=O)(O)O [Compound 65, (((3′S,5S,7′R)-10′-((2,4-difluorobenzyl)carbamoyl)-3-methoxy-3′-methyl-1′,11′-dioxo-1′,4′,5′,11′-tetrahydro-3′H,4H,7′H-spiro[isoxazole-5,6′-[2,7]methanopyrido[1,2-a][1,4]diazonin]-12′-yl)oxy)methyl ((R)-2-(phosphonooxy)butyl) carbonate]
HIV-1 (IIIB)
  EC50: 0.00102 µM
physchem
  solubility thermodynamic at 24 h: 3880 µg/mL (≈ 5.33 mM)
In vitro
  CC50 at 5 days: 14.1 µM

## CC[C@@H](COC(=O)OCOc1c2n(cc(C(=O)NCc3ccc(F)cc3F)c1=O)[C@@H]1CN(C2=O)[C@@H](C)CC[C@]12CC(C)=NO2)OP(=O)(O)O [Compound 66, (((3′S,5S,7′R)-10′-((2,4-difluorobenzyl)carbamoyl)-3,3′-dimethyl-1′,11′-dioxo-1′,4′,5′,11′-tetrahydro-3′H,4H,7′H-spiro[isoxazole-5,6′-[2,7]methanopyrido[1,2-a][1,4]diazonin]-12′-yl)oxy)methyl ((S)-2-(phosphonooxy)butyl) carbonate]
HIV-1 (IIIB)
  EC50: 0.00207 µM
physchem
  solubility thermodynamic at 24 h: 4270 µg/mL (≈ 5.99 mM)
In vitro
  CC50 at 5 days: 12.8 µM

## CC[C@@H](COC(=O)OCOc1c2n(cc(C(=O)NCc3ccc(F)cc3F)c1=O)[C@@H]1CN(C2=O)[C@@H](C)CC[C@]12CC(OC)=NO2)OP(=O)(O)O [Compound 67, (((3′S,5S,7′R)-10′-((2,4-difluorobenzyl)carbamoyl)-3-methoxy-3′-methyl-1′,11′-dioxo-1′,4′,5′,11′-tetrahydro-3′H,4H,7′H-spiro[isoxazole-5,6′-[2,7]methanopyrido[1,2-a][1,4]diazonin]-12′-yl)oxy)methyl ((S)-2-(phosphonooxy)butyl) carbonate]
HIV-1 (IIIB)
  EC50: 0.00241 µM
physchem
  solubility thermodynamic at 24 h: 5180 µg/mL (≈ 7.12 mM)
In vitro
  CC50 at 5 days: 14.4 µM

## COC1=NO[C@@]2(CC[C@H](C)N3C[C@H]2n2cc(C(=O)NCc4ccc(F)cc4F)c(=O)c(OCOC(=O)OC[C@H](C)COP(=O)(O)O)c2C3=O)C1 [Compound 68, (((3′S,5S,7′R)-10′-((2,4-difluorobenzyl)carbamoyl)-3-methoxy-3′-methyl-1′,11′-dioxo-1′,4′,5′,11′-tetrahydro-3′H,4H,7′H-spiro[isoxazole-5,6′-[2,7]methanopyrido[1,2-a][1,4]diazonin]-12′-yl)oxy)methyl ((S)-2-methyl-3-(phosphonooxy)propyl) carbonate]
HIV-1 (IIIB)
  EC50: 0.00211 µM
physchem
  solubility thermodynamic at 24 h: 4620 µg/mL (≈ 6.35 mM)
In vitro
  CC50 at 5 days: 16.1 µM

## CC1=NO[C@@]2(CC[C@H](C)N3C[C@H]2n2cc(C(=O)NCc4ccc(F)cc4F)c(=O)c(OCOC(=O)OC[C@H](C)COP(=O)(O)O)c2C3=O)C1 [Compound 69, (((3′S,5S,7′R)-10′-((2,4-difluorobenzyl)carbamoyl)-3,3′-dimethyl-1′,11′-dioxo-1′,4′,5′,11′-tetrahydro-3′H,4H,7′H-spiro[isoxazole-5,6′-[2,7]methanopyrido[1,2-a][1,4]diazonin]-12′-yl)oxy)methyl ((S)-2-methyl-3-(phosphonooxy)propyl) carbonate]
HIV-1 (IIIB)
  EC50: 0.0029 µM
physchem
  solubility thermodynamic at 24 h: 4600 µg/mL (≈ 6.46 mM)
In vitro
  CC50 at 5 days: 17.3 µM
